Earlier results as cited in US20200338153A1, “ANAEROBIC ANTIOXIDANT COMPOSITION” (priority 2019, published 2020).

Settings: in vivo

fraction renally excreted by the body: 30%
SMILES: CC(=O)N[C@@H](CS)C(=O)O [NAC, N-acetylcysteine]
